From BigSolDB 2.1

CCOc1ccc2ccccc2c1C(=O)O
solubility (mole fraction)
Settings	278.15 K	283.15 K	288.15 K	293.15 K	298.15 K	303.15 K	308.15 K	313.15 K	318.15 K	323.15 K
in acetone	0.0535	0.0606	0.0691	0.0781	0.089	0.0994	0.112	0.127	0.142	0.159
in acetonitrile	0.00615	0.00747	0.00921	0.011	0.0135	0.0165	0.022	0.0254	0.0308	0.0378
in ethanol	0.0268	0.0325	0.0392	0.0469	0.0565	0.0688	0.0836	0.101	0.119	0.136
in ethyl acetate	0.015	0.0174	0.0204	0.0239	0.0279	0.0331	0.038	0.0447	0.0526	0.0606
in isobutanol	0.0111	0.0138	0.0172	0.0208	0.0256	0.0322	0.0396	0.0508	0.0623	0.0779
in isopropanol	0.0148	0.0181	0.0228	0.0287	0.036	0.0459	0.058	0.0733	0.0901	0.112
in isopropyl acetate	0.0118	0.0136	0.0155	0.0185	0.0213	0.0245	0.029	0.0333	0.0389	0.0454
in methanol	0.0304	0.037	0.0443	0.0552	0.0671	0.0821	0.0951	0.114	0.134	0.151
in methyl acetate	0.0153	0.0181	0.0215	0.0254	0.0301	0.0356	0.0417	0.0495	0.0587	0.0693
in n-pentanol	0.0174	0.0205	0.0248	0.0296	0.0356	0.0431	0.052	0.0632	0.0744	0.0902
in n-propanol	0.0212	0.0236	0.0283	0.0345	0.0424	0.0511	0.0632	0.0779	0.092	0.114
in n-propyl acetate	0.0129	0.0149	0.0177	0.0204	0.024	0.028	0.0322	0.0381	0.0445	0.0516
